# Legend:
# Monoglyceride lipase [1] = molecular target: T1, Monoglyceride lipase (Mus musculus, UniProt O35678); assay: Preparation of Mouse Brain Proteomes from Inhibitor Treated Mice: Inhibitors were administered to wild-type C57B1/6J by oral gavage in a vehicle of polyethylene glycol. Each animal was sacrificed 4 h following administration and brain proteomes were prepared and analyzed according to previously established methods (See Niphakis, M. J., et al. (2011) ACS Chem. Neurosci. and Long, J. Z., et al. Nat. Chem. Biol. 5:37-44).
# T1 sequence (O35678 whole entry): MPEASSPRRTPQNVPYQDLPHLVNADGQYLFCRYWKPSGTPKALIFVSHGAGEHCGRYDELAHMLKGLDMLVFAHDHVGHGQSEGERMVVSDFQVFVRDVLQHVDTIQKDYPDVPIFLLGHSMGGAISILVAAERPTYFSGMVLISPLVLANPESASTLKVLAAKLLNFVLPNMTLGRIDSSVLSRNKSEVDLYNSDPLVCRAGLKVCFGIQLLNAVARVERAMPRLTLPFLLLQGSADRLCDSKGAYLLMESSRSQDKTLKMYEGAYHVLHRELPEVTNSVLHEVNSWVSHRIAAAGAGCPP
# Monoglyceride lipase [2] = molecular target: T2, Monoglyceride lipase (Homo sapiens, UniProt Q99685); assay: In Vitro Competitive Activity-Based Protein Profiling: Proteomes (human prefrontal cortex or cell membrane fractions) (50 μL, 1.0 mg/mL total protein concentration) were preincubated with varying concentrations of inhibitors at 37° C. After 30 min, FP-Rh or HT-01 (1.0 μL, 50 μM in DMSO) was added and the mixture was incubated for another 30 min at room temperature. Reactions were quenched with SDS loading buffer (15 μL—4×) and run on SDS-PAGE.
# T2 sequence (Q99685 whole entry): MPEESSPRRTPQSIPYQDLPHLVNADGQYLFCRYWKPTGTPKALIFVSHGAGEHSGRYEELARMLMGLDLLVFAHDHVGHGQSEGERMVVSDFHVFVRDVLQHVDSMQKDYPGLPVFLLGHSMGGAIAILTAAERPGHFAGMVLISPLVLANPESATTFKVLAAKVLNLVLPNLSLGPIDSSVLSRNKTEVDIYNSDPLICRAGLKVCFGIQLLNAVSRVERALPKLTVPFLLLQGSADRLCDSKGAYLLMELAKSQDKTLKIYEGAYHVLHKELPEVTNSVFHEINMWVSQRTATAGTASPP
SMILES,IC50 (Monoglyceride lipase [1]) [nM],IC50 (Monoglyceride lipase [2]) [nM]
O=C(OC(C(F)(F)F)C(F)(F)F)N1CCC2(CCCN2C(=O)c2cc3ccc(F)cc3s2)CC1,< 100,–
Cc1ccc2cc(C(=O)N3CCCC34CCN(C(=O)OC(C(F)(F)F)C(F)(F)F)CC4)sc2c1,< 100,–
COCCN(C(=O)C1(c2ncccn2)CC1)C1(C)CCN(C(=O)OC(C(F)(F)F)C(F)(F)F)CC1,–,< 100
COc1cccc2cc(CN3CCCC34CCN(C(=O)OC(C(F)(F)F)C(F)(F)F)CC4)[nH]c12,< 100,< 100

# Results, then the molecule that gave them:
IC50 (Monoglyceride lipase [1]) [nM],IC50 (Monoglyceride lipase [2]) [nM],SMILES
< 100,< 100,Cc1c(CN2CCCC23CCN(C(=O)OC(C(F)(F)F)C(F)(F)F)CC3)[nH]c2ccc(Cl)cc12
–,< 100,O=C(OC(C(F)(F)F)C(F)(F)F)N1CCC2(CCCN2Cc2cc3cc(Cl)c(Cl)cc3[nH]2)CC1

# From ChEMBL document CHEMBL5728755, “Spirocycle compounds and methods of making and using same” (2021)
